Results taken from patent US11033539B2, “Compounds of formulas (VII), (VIII), (IX), (XI), (XII), (XIII), and (XIV) as muscarinic receptor 4(M4) antagonists for treating neurological diseases” (Neurocrine Biosciences, Inc., priority 2015, dated 2021).

Biological target: human M4 receptor (Homo sapiens (Human), UniProt P08173)
Assay: Radioligand (tritiated N-methylscopolamine) binding assay, M4
Settings: not given
Procedure, shortened: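 Ki values come from displacement of 1.5 nM radioligand from membranes of receptor-expressing CHO cells, with filter-trapped radioactivity counted after rapid vacuum filtration. Twelve compound concentrations (10 μM to […]) were incubated for 90 min at 37 °C at pH 7.4.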

human M4 receptor, sequence (P08173 whole entry): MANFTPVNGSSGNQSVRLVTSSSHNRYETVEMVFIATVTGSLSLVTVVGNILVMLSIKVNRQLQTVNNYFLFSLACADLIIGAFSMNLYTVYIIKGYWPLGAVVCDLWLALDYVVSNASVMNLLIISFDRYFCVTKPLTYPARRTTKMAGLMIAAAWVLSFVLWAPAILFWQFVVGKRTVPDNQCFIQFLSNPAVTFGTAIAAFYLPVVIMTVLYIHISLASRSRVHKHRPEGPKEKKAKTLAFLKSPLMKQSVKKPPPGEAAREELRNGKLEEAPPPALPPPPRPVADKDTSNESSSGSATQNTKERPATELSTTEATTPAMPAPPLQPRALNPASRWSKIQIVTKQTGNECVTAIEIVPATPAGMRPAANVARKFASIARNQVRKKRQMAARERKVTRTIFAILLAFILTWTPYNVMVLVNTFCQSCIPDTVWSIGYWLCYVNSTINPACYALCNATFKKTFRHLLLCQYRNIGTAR

| SMILES | Ki |
| --- | --- |
| N#CC1(c2ccccc2)CCN(C(=O)NCCC2CCN(Cc3ccccc3)CC2)CC1 [8-33, N-[2-(1-benzylpiperidin-4-yl)ethyl]-4-cyano-4-phenylpiperidine-1-carboxamide] | 100 to 1000 nM |

Same assay, conditions: Ki against the M4 receptor; membranes from CHO cells expressing human M4; tritiated N-methylscopolamine 1.5 nM; read-out: Ki

| SMILES | Ki |
| --- | --- |
| O=C(NCCC1CCN(Cc2csnn2)CC1)C1CCN(c2ccc(OC(F)(F)F)cc2)CC1 [11-11, N-{2-[1-(1,2,3-thiadiazol-4-ylmethyl)piperidin-4-yl]ethyl}-1-[4-(trifluoromethoxy)phenyl]piperidine-4-carboxamide] | 100 to 1000 nM |
| C[C@@H]1CN(c2cc(F)c(F)c(F)c2)CCN1C(=O)NCCC1CCN(Cc2cccc(OC(F)(F)F)c2)CC1 [6-20, (2R)-2-methyl-N-[2-(1-{[3-(trifluoromethoxy)phenyl]methyl}piperidin-4-yl)ethyl]-4-(3,4,5-trifluorophenyl)piperazine-1-carboxamide] | 100 to 1000 nM |
| O=C(NCCC1CCN(Cc2ccccc2)CC1)C1CCN(c2ccc(C(F)(F)F)nc2)CC1 [10-68, N-[2-(1-benzylpiperidin-4-yl)ethyl]-1-[6-(trifluoromethyl)pyridin-3-yl]piperidine-4-carboxamide] | 100 to 1000 nM |
| Cc1c(C(=O)NCCC2CCN(Cc3ccccc3)CC2)cnc2cc(-c3ccccc3C(F)(F)F)nn12 [18-11] | 10 to 100 nM |
| O=C(NC1CCN(c2ccc(F)cc2)CC1)OCCC1CCN(Cc2ccccc2)CC1 [12-6, 2-(1-benzylpiperidin-4-yl)ethyl N-[1-(4-fluorophenyl)piperidin-4-yl]carbamate] | 100 to 1000 nM |
| O=C(NCCC1CCN(Cc2ccccc2)CC1)C1CCN(c2ccc(C(F)(F)F)cn2)CC1 [10-24, N-[2-(1-benzylpiperidin-4-yl)ethyl]-1-[5-(trifluoromethyl)pyridin-2-yl]piperidine-4-carboxamide] | 10 to 100 nM |
| COc1ccc(N2CCN(C(=O)NCCC3CCN(Cc4ccccc4)CC3)CC2C)cc1 (stereo not shown) [4-56, N-[2-(1-benzylpiperidin-4-yl)ethyl]-4-(4-methoxyphenyl)-3-methylpiperazine-1-carboxamide] | 100 to 1000 nM |
| O=C(NCCC1CCN(Cc2ccccc2)CC1)N1CCN(c2ncccn2)CC1 [8-29, N-[2-(1-benzylpiperidin-4-yl)ethyl]-4-(pyrimidin-2-yl)piperazine-1-carboxamide] | 100 to 1000 nM |
| O=C(NCCC1CCN(Cc2ccccc2)CC1)C1(F)CCN(c2ccccc2OC(F)(F)F)CC1 [10-17, N-[2-(1-benzylpiperidin-4-yl)ethyl]-4-fluoro-1-[2-(trifluoromethoxy)phenyl]piperidine-4-carboxamide] | 100 to 1000 nM |
| C[C@@H]1CN(c2ncc(C(=O)NC3CCC3)cn2)C[C@H](C)N1C(=O)NCCC1CCN(Cc2ccccc2)CC1 [27-6] | 100 to 1000 nM |
| O=C(NCCC1CCN(Cc2ccccc2)CC1)C1CCN(c2cc(C(F)(F)F)ccn2)CC1 [10-32, N-[2-(1-benzylpiperidin-4-yl)ethyl]-1-[4-(trifluoromethyl)pyridin-2-yl]piperidine-4-carboxamide] | 10 to 100 nM |
| COc1ccccc1C1CCN(C(=O)NCCC2CCN(Cc3ccccc3)CC2)CC1 [8-6, N-[2-(1-benzylpiperidin-4-yl)ethyl]-4-(2-methoxyphenyl)piperidine-1-carboxamide] | 100 to 1000 nM |
| O=C(NCCC1CCN(Cc2ccccc2)CC1)C1CCN(c2ccccc2)CC1 [10-3, N-[2-(1-benzylpiperidin-4-yl)ethyl]-1-phenylpiperidine-4-carboxamide] | 100 to 1000 nM |
| C[C@@H]1CN(c2cnc(C(F)(F)F)nc2)C[C@H](C)N1C(=O)NCCC1CCN(Cc2ccc(N(C)C)cc2)CC1 [6-53, (2R,6S)-N-[2-(1-{[4-(dimethylamino)phenyl]methyl}piperidin-4-yl)ethyl]-2,6-dimethyl-4-[2-(trifluoromethyl)pyrimidin-5-yl]piperazine-1-carboxamide] | 10 to 100 nM |
| CC1CN(c2ccccc2OC(F)(F)F)CCC1C(=O)NCCC1CCN(Cc2ccccc2)CC1 (stereo not shown) [10-16, N-[2-(1-benzylpiperidin-4-yl)ethyl]-3-methyl-1-[2-(trifluoromethoxy)phenyl]piperidine-4-carboxamide] | 100 to 1000 nM |
| C[C@@H]1CN(c2ncc(F)cn2)C[C@H](C)N1C(=O)NCCC1CCN(Cc2ccccc2)CC1 [5-19, (2S,6R)-N-[2-(1-benzylpiperidin-4-yl)ethyl]-4-(5-fluoropyrimidin-2-yl)-2,6-dimethylpiperazine-1-carboxamide] | 10 to 100 nM |
| N#Cc1ccc(-n2cnc(C(=O)NCCC3CCN(Cc4ccccc4)CC3)c2)nc1 [9-75, N-[2-(1-benzylpiperidin-4-yl)ethyl]-1-(5-cyanopyridin-2-yl)-1H-imidazole-4-carboxamide] | 100 to 1000 nM |
| COc1ccc(CN2CCC(CCNC(=O)N3[C@H](C)CN(c4ncc(C#N)cn4)C[C@@H]3C)CC2)cc1 [6-65, (2R,6S)-4-(5-cyanopyrimidin-2-yl)-N-(2-{1-[(4-methoxyphenyl)-methyl]piperidin-4-yl}ethyl)-2,6-dimethylpiperazine-1-carboxamide] | 10 to 100 nM |
| Cc1c(C(=O)NCCC2CCN(Cc3ccccc3O)CC2)cnc2cc(-c3ccccc3)nn12 [19-4] | 100 to 1000 nM |
| Cc1c(C(=O)NCCC2CCN(Cc3ccccc3)CC2)cnc2cc(-c3ccccc3)nn12 [17-2, N-[2-(1-benzylpiperidin-4-yl)ethyl]-7-methyl-2-phenylpyrazolo[1,5-a]pyrimidine-6-carboxamide] | 100 to 1000 nM |

| SMILES | Ki |
| --- | --- |
| O=C(NCCC1CCN(Cc2ccccc2)CC1)N1CCC(O)(c2cccc(C(F)(F)F)c2)CC1 [8-19, N-[2-(1-benzylpiperidin-4-yl)ethyl]-4-hydroxy-4-[3-(trifluoromethyl)phenyl]piperidine-1-carboxamide] | 10 to 100 nM |
| C[C@@H]1CN(c2ccc(C#N)nn2)C[C@H](C)N1C(=O)NCCC1CCN(Cc2ccccc2)CC1 [23-3, (2R,6S)-N-[2-(1-benzylpiperidin-4-yl)ethyl]-4-(6-cyanopyridazin-3-yl)-2,6-dimethylpiperazine-1-carboxamide] | 10 to 100 nM |
| C[C@@H]1CN(c2cc(F)c(F)c(F)c2)CCN1C(=O)NCC[C@H]1CCN(Cc2ccccc2)C1 [7-5, (2R)-N-{2-[(3S)-1-benzylpyrrolidin-3-yl]ethyl}-2-methyl-4-(3,4,5-trifluorophenyl)piperazine-1-carboxamide] | 100 to 1000 nM |
| C[C@@H]1CN(c2ccc(F)cc2F)CCN1C(=O)NCCC1CCN(Cc2ccccc2)CC1 [4-33, (2R)-N-[2-(1-benzylpiperidin-4-yl)ethyl]-4-(2,4-difluorophenyl)-2-methylpiperazine-1-carboxamide] | 10 to 100 nM |
| C[C@@H]1CN(c2cc(F)c(F)c(F)c2)CCN1C(=O)NCCC1CCN(Cc2ccc(C#N)cc2)CC1 [6-2, (2R)-N-(2-{1-[(4-cyanophenyl)methyl]piperidin-4-yl}ethyl)-2-methyl-4-(3,4,5-trifluorophenyl)piperazine-1-carboxamide] | 100 to 1000 nM |
| CCNC(=O)c1cnc(N2CCN(C(=O)NCCC3CCN(Cc4ccccc4)CC3)[C@H](C)C2)nc1 [27-16] | 100 to 1000 nM |
| CCNC(=O)c1cc(C)nc(N2CCN(C(=O)NCCC3CCN(Cc4ccccc4)CC3)[C@H](C)C2)n1 [27-19] | 100 to 1000 nM |
| COc1ccnc(N2CCN(C(=O)NCCC3CCN(Cc4ccccc4)CC3)[C@H](C)C2)n1 [4-2, (2R)-N-[2-(1-benzylpiperidin-4-yl)ethyl]-4-(4-methoxypyrimidin-2-yl)-2-methylpiperazine-1-carboxamide] | 100 to 1000 nM |
| Cc1cc(N2CCN(C(=O)NCCC3CCN(Cc4ccccc4)CC3)[C@H](C)C2)ccc1C#N [4-4, (2R)-N-[2-(1-benzylpiperidin-4-yl)ethyl]-4-(4-cyano-3-methylphenyl)-2-methylpiperazine-1-carboxamide] | 100 to 1000 nM |
| O=C(NCCC1CCN(Cc2ccccc2)CC1)c1ccc(-c2cccs2)cc1 [9-55, N-[2-(1-benzylpiperidin-4-yl)ethyl]-4-(thiophen-2-yl)benzamide] | 100 to 1000 nM |
| O=C(OCCC1CCN(Cc2ccccc2)CC1)N1CCN(c2ccc(F)cc2)CC1 [12-3, 2-(1-benzylpiperidin-4-yl)ethyl 4-(4-fluorophenyl)piperazine-1-carboxylate] | 100 to 1000 nM |
| COC(=O)c1ccc(-c2ccc(C(=O)NCCC3CCN(Cc4ccccc4)CC3)cc2)cc1 [9-14, methyl 4-(4-{[2-(1-benzylpiperidin-4-yl)ethyl]carbamoyl}phenyl)benzoate] | 10 to 100 nM |
| O=C(NCC[C@H]1CCN(Cc2ccccc2)C1)C1CCN(c2ccc(OC(F)(F)F)cc2)CC1 [9-49, N-{2-[(3S)-1-benzylpyrrolidin-3-yl]ethyl}-1-[4-(trifluoromethoxy)phenyl]piperidine-4-carboxamide] | 100 to 1000 nM |
| C[C@@H]1CN(c2ncc(C(=O)NCCF)cn2)C[C@H](C)N1C(=O)NCCC1CCN(Cc2ccccc2)CC1 [27-7] | 100 to 1000 nM |
| C[C@@H]1CN(c2cc(F)c(F)c(F)c2)CCN1C(=O)NCCC1CCN(Cc2ccccc2C#N)CC1 [6-29, (2R)-N-(2-{1-[(2-cyanophenyl)methyl]piperidin-4-yl}ethyl)-2-methyl-4-(3,4,5-trifluorophenyl)piperazine-1-carboxamide] | 100 to 1000 nM |
| Cn1cccc1CN1CCC(CCNC(=O)C2CCN(c3ccc(OC(F)(F)F)cc3)CC2)CC1 [11-15, N-(2-{1-[(1-methyl-1H-pyrrol-2-yl)methyl]piperidin-4-yl}ethyl)-1-[4-(trifluoromethoxy)phenyl]piperidine-4-carboxamide] | 100 to 1000 nM |
| COC1(C(=O)NCCC2CCN(Cc3ccccc3)CC2)CCN(c2ccc(C(F)(F)F)cn2)CC1 [10-48, N-[2-(1-benzylpiperidin-4-yl)ethyl]-4-methoxy-1-[5-(trifluoromethyl)pyridin-2-yl]piperidine-4-carboxamide] | 100 to 1000 nM |
| O=C(NCCC1CCN(CC2CCCCC2)CC1)C1CCN(c2ccc(OC(F)(F)F)cc2)CC1 [11-21, N-{2-[1-(cyclohexylmethyl)piperidin-4-yl]ethyl}-1-[4-(trifluoromethoxy)phenyl]piperidine-4-carboxamide] | 100 to 1000 nM |
| C[C@@H]1CN(c2cncc(F)c2)CCN1C(=O)NCCC1CCN(Cc2ccccc2)CC1 [4-61, (2R)-N-[2-(1-benzylpiperidin-4-yl)ethyl]-4-(5-fluoropyridin-3-yl)-2-methylpiperazine-1-carboxamide] | 100 to 1000 nM |
